In patent US20080200538A1, “Inhibition of Monocyte Survival, Differentiation, or Proliferation” (The Ohio State University Research Foundation, priority 2005, published 2008):

Legend:
[1] = tested on: caspase-3; assay: Caspase-3 activity, DEVD-AFC assay, THP-1 lysates; type: cell-based, human
Protocol: FIG. 3. Apigenin induces caspase activation in monocytic leukemia. THP-1 (top) and U937 (bottom) leukemia cells were treated for various lengths of time with 50 μM apigenin or DMSO (NT). (A and C) Caspase-9 activity was determined by the LEHDAFC assay. (B and D) Caspase-3 activity was determined by the DEVD-AFC assay. Data represents means ±SEM (N=3).
(§1) FIG. 4. Caspase-3 activation is required for apigenin-induced apoptosis. THP-1 cells were treated for 12 h with 50 μM apigenin alone or pretreated with 20 μM DEVD-FMK for 1 h prior to the addition of apigenin. (A) Cells were then stained with calcein AM and 24 PI and the percentage of apoptotic cells was determined. (B) Lysates from cells treated as described above were used to determined caspase-3 activity by the DEVD-AFC assay. All data represents means ±SEM (N=5).
(§2) FIG. 7. Apigenin induced p38 activation is not required for apoptosis. A. Cells were pretreated for 1 h prior to addition of 50 μM apigenin or DMSO (−) with 10 or 25 μM concentrations of SB203580 or DMSO (−) for 12 h. The percentage of apoptotic cells was determined by calcein AM with PI stained cells. Data represents means ±SEM (N=5 p>0.05). B. Lysates from the same treatments were used to determined caspase-3 activity by the DEVD-AFC assay. Data represents means ±SEM (N=5 p>0.05).
For measurements of caspase activity, cells were plated at a density of 1.5×10^6 cells/well. After treatment, cells extracts were prepared as previously described (Doseff, A. I., Baker J. H., Bourgeois T. A. and Wewers M. D. (2003) Interleukin-4-induced zpoptosis entails caspase activation and suppression of extracellular signal-regulated kinase phosphorylation. Am. J. Resp. Cell Mol. Biol., 29, 367-374). […] Levels of released AFC were measured using Cytofluor 400 fluorimeter (Filters: excitation 400 nm, emission 508 nm; Perspective Co., Framingham, Mass.).

[2] = tested on: p38; assay: Western blot of p38 phosphorylation in THP-1 cells; type: cell-based, human; conditions: THP-1, 10 or 25 μM SB203580 1 h prior to 50 μM apigenin for 3 h
Protocol: A. THP-1 cells were treated with 50 μM apigenin for various lengths of time. Lysates were separated by SDS-PAGE, transferred and analyzed by immunoblots with anti-phospho-p38 (pp 38) and anti-total-p38 antibodies. B. THP-1 cells were treated for 6 hr with 50 μM apigenin alone (lane 2), treated with the apigenin diluent (lane 1), pretreatred with 10 or 25 μM SB203580 for 1 hr prior to the addition of apigenin (lanes 3 and 4) or with the SB203580 inhibitor alone (lanes 5 and 6).
Extracts from 3×10^6 cells were prepared by incubating cells for 30 min on ice in lysis buffer (50 mM Tris, 10 mM EDTA 0.5% NP-40, 10 mM Na-glycerophosphate, 5 mM Na-pyrophosphate, 50 mM NaF, 1 mM orthovanadate, 1 mM DTT, 0.1 mM PMSF, 2 μg/ml of protease inhibitors: chymostatin, pepstatin, antipain, and leupeptin). Cell lysates were centrifuged (14,000×g for 10 min at 4° C.) and the supernatants were stored for at −70° C. for future analysis. Equal amounts of protein were loaded and separated by SDS-PAGE, transferred onto nitrocellulose membranes and probed with antibodies of interest followed by horseradish peroxidase conjugated secondary antibody and visualized by enhanced chemiluminescence (Amersham, Arlington Heights, Ill.). […]

[3] = tested on: THP-1 cells; assay: Cell survival and apoptosis by calcein AM/PI staining; type: cell-based, human
Protocol: FIG. 2. Apigenin induces cell death in monocytic leukemia cells. THP-1 and U937 leukemia cells were treated for various lengths of time with 50 μM apigenin or left untreated (NT) and stained with calcein AM and PI as described in Material and Methods to evaluate the percentage of cell survival. (A) THP cells after 12 h cells treated with 50 μM apigenin or with DMSO (NT). (B) The percentage of cell survival represented by means ±SEM (N=3).
as §1, §2
To investigate apoptosis, cells were plated at a density of 1×10^6 cells/well. After treatment, cells were collected and washed in PBS. Cells were then incubated in RPMI (no phenol red) and 1 μg/ml calcein AM for 30 min and 5×10−2 ng/ml propidium iodide (PI) for 5 min. Cells were washed twice and resuspended in PBS. Cells were viewed using a fluorescent microscope (Olympus, Melville, N.Y.). At least 200 cells were counted. Cells calcein AM positive (green) in the absence of PI (red) were considered alive while cells undergoing apoptosis are green with red. Number of green cells or green with red cells was counted over total number of cells (green alone and green with red) to express cell survival or apoptotic cell percentage respectively.

[4] = tested on: Akt; assay: Western blot of Akt phosphorylation and total Akt in THP-1 cells; type: cell-based, human; conditions: THP-1, 10 or 25 μM SB203580 1 h prior to 50 μM apigenin for 3 h
Protocol: FIG. 5. Apigenin affects Akt phosphorylation. THP-1 cells were treated with 50 μM apigenin for different lengths of time. Lysates were separated by SDS-PAGE, transferred and immunoblotted with anti-phospho-Akt (pSer 473), anti-phospho-Akt (pThr 308), total Akt, and â-tubulin antibodies.
FIG. 6. Apigenin induces the activation of p38 and inactivation of Akt. A. THP-1 cells were treated with 50 μM apigenin for various lengths of time. Lysates were separated by SDS-PAGE, transferred and analyzed by immunoblots with anti-phospho-p38 (pp 38) and anti-total-p38 antibodies. B. […] Lysates were analyzed by immunoblotting with anti-phospho-Akt (pSer 473), anti-phospho-p38 (p-p38), and anti-total-p38 antibodies.
Extracts from 3×10^6 cells were prepared by incubating cells for 30 min on ice in lysis buffer (50 mM Tris, 10 mM EDTA 0.5% NP-40, 10 mM Na-glycerophosphate, 5 mM Na-pyrophosphate, 50 mM NaF, 1 mM orthovanadate, 1 mM DTT, 0.1 mM PMSF, 2 μg/ml of protease inhibitors: chymostatin, pepstatin, antipain, and leupeptin). Cell lysates were centrifuged (14,000×g for 10 min at 4° C.) and the supernatants were stored for at −70° C. for future analysis. Equal amounts of protein were loaded and separated by SDS-PAGE, transferred onto nitrocellulose membranes and probed with antibodies of interest followed by horseradish peroxidase conjugated secondary antibody and visualized by enhanced chemiluminescence (Amersham, Arlington Heights, Ill.). Phospho-Ser473-Akt, phospho-Thr308-Alt, total AKT, phospho-p38 and total p38 antibodies were obtained from Cell Signaling (Boston, Mass.). â-tubulin antibody was obtained from Upstate (Charlottesville, Va.).

[5] = tested on: A549 cells; assay: Cell viability assay (CellTiter 96 / MTT, A490); type: cell-based; conditions: A549, up to 500 μM naringenin, 24 h; reduced by
Protocol: (§3) FIG. 1. Effect of apigenin and naringenin in cell survival of cancer cells. (A) Structure of the flavonoids apigenin and naringenin. (B) THP-1, U937, A549, and MCF-7 cells were treated with various doses of apigenin or naringenin for 24 h. After the treatment, the percentage of cell proliferation was calculated as the ratio of treated cells to control cells as determined by the MTT method (A490). Data represents means ±SEM (N=9). […] Cells were plated at a density of 2×10^4 cells/well into 96-well plates and treated with flavonoids at indicated concentrations for 24 h. Absorbance at 490 nm (A490) was recorded using an ELISA plate reader (Bio-Tek ELx800, KC Junior, Winooski, Vt.).

[6] = tested on: MCF-7 cells; assay: Cell viability assay (CellTiter 96 / MTT, A490); type: cell-based; conditions: MCF-7, up to 500 μM naringenin, 24 h; reduced by
Protocol: as §3

[7] = tested on: THP-1 cells
[8] = tested on: U937 cells; assay: Cell viability assay (CellTiter 96 / MTT, A490); type: cell-based, human; conditions: U937, 500 μM naringenin, 24 h; reduced to
Protocol: as §3

[9] = tested on: THP-1 cells; assay: Cell viability assay (CellTiter 96 / MTT, A490); type: cell-based, human; conditions: THP-1, 500 μM naringenin, 24 h; reduced to
Protocol: as §3

[10] = THP-1, 20 μM DEVD-FMK 1 h prior to 50 μM apigenin for 12 h

C[S+]([O-])c1ccc(-c2nc(-c3ccncc3)c(-c3ccc(F)cc3)[nH]2)cc1 (centres unmarked) [SB203580, reference compound]
caspase-3 activity ([1]; THP-1, SB203580 and 50 μM apigenin vs apigenin alone, P>0.05): similar
apigenin-induced p38 phosphorylation [2]: significantly reduced
number of apoptotic cells induced by apigenin ([3]; THP-1, SB203580 (10 or 25 μM) 1 h prior to 50 μM apigenin, 12 h, vs apigenin alone, P>0.05): did not result in a reduction
Akt phosphorylation at Ser473 [4]: increase

O=C1C[C@@H](c2ccc(O)cc2)Oc2cc(O)cc(O)c21 [naringenin, reference compound]
reduction of cell proliferation [5]: 20%
reduction of cell proliferation [6]: 20%
conversion to another chemical entity in treated cells [7]: neither one of these two compounds is significantly converted
cell proliferation (ratio of treated to control cells) [8]: 60%
cell proliferation (ratio of treated to control cells) [9]: 60%

DEVD-FMK: caspase-3 inhibitor obtained from Enzyme System Products [reference compound]
effect on apigenin-induced caspase-3 activity [1, 10]: inhibited the apigenin-induced activation of caspase-3 to the levels observed in untreated cells
apoptotic cells [3, 10]: < 10%
